The text below walks through data of ChEMBL document CHEMBL2417377, “Hit-to-lead optimization and kinase selectivity of imidazo[1,2-a]quinoxalin-4-amine derived JNK1 inhibitors” (Bioorg Med Chem Lett, 2013).

As a reminder, the inhibition is the change of the read-out against control, counted positive when it falls. Lower therefore signals a response near the control.

Structures are written as SMILES.

The target of assay [1] is T1, Mitogen-activated protein kinase kinase kinase 2 (Homo sapiens) (UniProt Q9Y2U5).
T1 sequence (whole entry): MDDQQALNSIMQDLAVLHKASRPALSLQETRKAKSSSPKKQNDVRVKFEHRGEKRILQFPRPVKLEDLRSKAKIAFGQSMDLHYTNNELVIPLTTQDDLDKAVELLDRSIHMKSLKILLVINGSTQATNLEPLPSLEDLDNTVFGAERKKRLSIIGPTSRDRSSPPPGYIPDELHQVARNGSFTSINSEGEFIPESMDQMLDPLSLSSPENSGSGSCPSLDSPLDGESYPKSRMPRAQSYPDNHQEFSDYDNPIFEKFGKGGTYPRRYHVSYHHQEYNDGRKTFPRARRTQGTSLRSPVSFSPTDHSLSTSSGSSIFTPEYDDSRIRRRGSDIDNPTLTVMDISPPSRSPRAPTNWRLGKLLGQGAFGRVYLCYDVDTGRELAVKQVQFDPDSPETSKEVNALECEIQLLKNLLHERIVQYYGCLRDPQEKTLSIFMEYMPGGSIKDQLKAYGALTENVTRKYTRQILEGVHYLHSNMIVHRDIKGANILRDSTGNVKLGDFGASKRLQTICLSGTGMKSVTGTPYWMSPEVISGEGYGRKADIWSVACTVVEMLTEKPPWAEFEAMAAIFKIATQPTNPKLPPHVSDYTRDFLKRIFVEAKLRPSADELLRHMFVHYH
As to the kind of experiment: Inhibition of MAP3K2 in human PC3 cell lysates at 10 uM using desthiobiotin-tagged ATP probe AX9989 followed by trypsinization by LC/MS analysis. The following applies: PC-3.

The target of assay [2] is SRSF protein kinase 1 (Homo sapiens) (UniProt Q96SB4). Briefly: Inhibition of SRPK1 in human PC3 cell lysates at 10 uM using desthiobiotin-tagged ATP probe AX9989 followed by trypsinization by LC/MS analysis. The following applies: PC-3.
Sequence of SRSF protein kinase 1 (Homo sapiens) (Q96SB4 whole entry): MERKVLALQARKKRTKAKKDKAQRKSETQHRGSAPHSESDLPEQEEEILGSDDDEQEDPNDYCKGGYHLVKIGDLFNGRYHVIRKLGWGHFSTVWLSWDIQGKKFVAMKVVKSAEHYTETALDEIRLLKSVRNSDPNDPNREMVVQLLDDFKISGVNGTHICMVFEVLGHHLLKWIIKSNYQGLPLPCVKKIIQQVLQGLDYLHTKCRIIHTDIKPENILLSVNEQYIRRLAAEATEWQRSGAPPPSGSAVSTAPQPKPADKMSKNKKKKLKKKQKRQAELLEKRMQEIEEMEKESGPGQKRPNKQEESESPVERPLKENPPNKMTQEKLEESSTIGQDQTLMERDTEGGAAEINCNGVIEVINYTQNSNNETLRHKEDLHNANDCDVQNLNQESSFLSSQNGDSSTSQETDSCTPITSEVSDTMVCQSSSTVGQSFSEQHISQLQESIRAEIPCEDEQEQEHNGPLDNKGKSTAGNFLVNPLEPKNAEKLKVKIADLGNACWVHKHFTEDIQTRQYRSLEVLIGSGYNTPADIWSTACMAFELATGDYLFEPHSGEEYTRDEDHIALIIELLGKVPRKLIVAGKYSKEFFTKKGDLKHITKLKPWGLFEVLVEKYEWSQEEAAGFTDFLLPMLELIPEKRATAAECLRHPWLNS
Assay [3] concerns the target Tyrosine-protein kinase CSK (Homo sapiens) (UniProt P41240). As to the kind of experiment: Inhibition of CSK in human PC3 cell lysates at 10 uM using desthiobiotin-tagged ATP probe AX9989 followed by trypsinization by LC/MS analysis. Conditions: PC-3.
In assay [4] the target is T2, Phosphatidylinositol 5-phosphate 4-kinase type-2 gamma (Homo sapiens) (UniProt Q8TBX8).
T2 sequence (whole entry): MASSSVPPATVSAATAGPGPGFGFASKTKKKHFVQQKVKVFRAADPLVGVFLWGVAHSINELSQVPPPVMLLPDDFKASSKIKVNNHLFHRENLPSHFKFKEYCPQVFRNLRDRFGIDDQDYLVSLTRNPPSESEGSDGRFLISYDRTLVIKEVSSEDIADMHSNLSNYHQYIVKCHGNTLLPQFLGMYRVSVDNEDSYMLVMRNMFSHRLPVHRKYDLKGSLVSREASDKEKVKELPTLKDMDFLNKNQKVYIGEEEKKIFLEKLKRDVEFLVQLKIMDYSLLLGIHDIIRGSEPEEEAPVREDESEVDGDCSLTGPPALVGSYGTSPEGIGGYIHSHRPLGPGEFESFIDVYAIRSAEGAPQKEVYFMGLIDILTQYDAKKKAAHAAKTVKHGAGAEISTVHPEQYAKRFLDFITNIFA
As to the kind of experiment: Inhibition of PIP4K2C in human PC3 cell lysates at 10 uM using desthiobiotin-tagged ATP probe AX9989 followed by trypsinization by LC/MS analysis. Conditions: PC-3.

The target of assay [5] is T3, Serine/threonine-protein kinase TAO1 (Homo sapiens) (UniProt Q7L7X3).
T3 sequence (whole entry): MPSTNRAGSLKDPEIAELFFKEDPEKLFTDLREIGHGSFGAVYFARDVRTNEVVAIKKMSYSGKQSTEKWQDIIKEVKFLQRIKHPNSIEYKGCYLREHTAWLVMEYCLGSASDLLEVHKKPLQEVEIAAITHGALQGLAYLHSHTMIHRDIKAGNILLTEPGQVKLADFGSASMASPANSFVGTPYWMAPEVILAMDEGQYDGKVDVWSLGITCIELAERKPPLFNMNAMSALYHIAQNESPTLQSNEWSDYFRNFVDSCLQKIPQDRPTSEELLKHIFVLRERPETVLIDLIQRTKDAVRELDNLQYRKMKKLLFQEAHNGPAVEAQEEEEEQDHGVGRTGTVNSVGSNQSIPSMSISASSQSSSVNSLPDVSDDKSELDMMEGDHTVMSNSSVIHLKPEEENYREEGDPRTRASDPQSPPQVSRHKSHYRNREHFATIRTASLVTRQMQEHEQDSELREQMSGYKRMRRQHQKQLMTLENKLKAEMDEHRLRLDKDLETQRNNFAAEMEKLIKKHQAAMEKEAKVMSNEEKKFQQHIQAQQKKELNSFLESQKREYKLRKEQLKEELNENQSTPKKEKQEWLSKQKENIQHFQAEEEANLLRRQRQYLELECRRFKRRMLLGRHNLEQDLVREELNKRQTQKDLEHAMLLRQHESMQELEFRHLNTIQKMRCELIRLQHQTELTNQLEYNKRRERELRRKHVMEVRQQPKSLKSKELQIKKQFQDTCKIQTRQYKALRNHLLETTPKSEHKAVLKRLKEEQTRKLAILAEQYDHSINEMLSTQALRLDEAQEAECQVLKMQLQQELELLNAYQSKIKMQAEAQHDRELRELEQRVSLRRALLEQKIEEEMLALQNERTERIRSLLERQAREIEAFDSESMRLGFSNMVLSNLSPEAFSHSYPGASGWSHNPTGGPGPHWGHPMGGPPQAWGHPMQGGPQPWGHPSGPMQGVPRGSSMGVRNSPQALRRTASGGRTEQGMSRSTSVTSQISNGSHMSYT
As to the kind of experiment: Inhibition of TAO1 in human PC3 cell lysates at 10 uM using desthiobiotin-tagged ATP probe AX9989 followed by trypsinization by LC/MS analysis. The following applies: PC-3.

Assay [6] has as its target Cyclin-dependent kinase 11B (Homo sapiens) (UniProt P21127). Briefly: Inhibition of CDK11 in human PC3 cell lysates at 10 uM using desthiobiotin-tagged ATP probe AX9989 followed by trypsinization by LC/MS analysis. Conditions: PC-3.
Assay [7] addresses Mitogen-activated protein kinase kinase kinase 4 (Homo sapiens) (UniProt Q9Y6R4). Briefly: Inhibition of MAP3K4 in human PC3 cell lysates at 10 uM using desthiobiotin-tagged ATP probe AX9989 followed by trypsinization by LC/MS analysis. Conditions: PC-3.
Assay [8] concerns PC-3. Briefly: Inhibition of KHS1 in human PC3 cell lysates at 10 uM using desthiobiotin-tagged ATP probe AX9989 followed by trypsinization by LC/MS analysis. It is filed as cell-free.
Assay [9] has as its target Serine/threonine-protein kinase WNK2 (Homo sapiens) (UniProt Q9Y3S1). As to the kind of experiment: Inhibition of Wnk2 in human PC3 cell lysates at 10 uM using desthiobiotin-tagged ATP probe AX9989 followed by trypsinization by LC/MS analysis. Conditions: PC-3.
Assay [10] has as its target Rho-associated protein kinase 2 (Homo sapiens) (UniProt O75116). Briefly: Inhibition of ROCK2 in human PC3 cell lysates at 10 uM using desthiobiotin-tagged ATP probe AX9989 followed by trypsinization by LC/MS analysis. The following applies: PC-3.
For assay [11], the target named is Casein kinase I isoform alpha (Homo sapiens) (UniProt P48729). Briefly: Inhibition of CK1alpha in human PC3 cell lysates at 10 uM using desthiobiotin-tagged ATP probe AX9989 followed by trypsinization by LC/MS analysis. The following applies: PC-3.

Sequence of Mitogen-activated protein kinase kinase kinase 4 (Homo sapiens) (Q9Y6R4 whole entry): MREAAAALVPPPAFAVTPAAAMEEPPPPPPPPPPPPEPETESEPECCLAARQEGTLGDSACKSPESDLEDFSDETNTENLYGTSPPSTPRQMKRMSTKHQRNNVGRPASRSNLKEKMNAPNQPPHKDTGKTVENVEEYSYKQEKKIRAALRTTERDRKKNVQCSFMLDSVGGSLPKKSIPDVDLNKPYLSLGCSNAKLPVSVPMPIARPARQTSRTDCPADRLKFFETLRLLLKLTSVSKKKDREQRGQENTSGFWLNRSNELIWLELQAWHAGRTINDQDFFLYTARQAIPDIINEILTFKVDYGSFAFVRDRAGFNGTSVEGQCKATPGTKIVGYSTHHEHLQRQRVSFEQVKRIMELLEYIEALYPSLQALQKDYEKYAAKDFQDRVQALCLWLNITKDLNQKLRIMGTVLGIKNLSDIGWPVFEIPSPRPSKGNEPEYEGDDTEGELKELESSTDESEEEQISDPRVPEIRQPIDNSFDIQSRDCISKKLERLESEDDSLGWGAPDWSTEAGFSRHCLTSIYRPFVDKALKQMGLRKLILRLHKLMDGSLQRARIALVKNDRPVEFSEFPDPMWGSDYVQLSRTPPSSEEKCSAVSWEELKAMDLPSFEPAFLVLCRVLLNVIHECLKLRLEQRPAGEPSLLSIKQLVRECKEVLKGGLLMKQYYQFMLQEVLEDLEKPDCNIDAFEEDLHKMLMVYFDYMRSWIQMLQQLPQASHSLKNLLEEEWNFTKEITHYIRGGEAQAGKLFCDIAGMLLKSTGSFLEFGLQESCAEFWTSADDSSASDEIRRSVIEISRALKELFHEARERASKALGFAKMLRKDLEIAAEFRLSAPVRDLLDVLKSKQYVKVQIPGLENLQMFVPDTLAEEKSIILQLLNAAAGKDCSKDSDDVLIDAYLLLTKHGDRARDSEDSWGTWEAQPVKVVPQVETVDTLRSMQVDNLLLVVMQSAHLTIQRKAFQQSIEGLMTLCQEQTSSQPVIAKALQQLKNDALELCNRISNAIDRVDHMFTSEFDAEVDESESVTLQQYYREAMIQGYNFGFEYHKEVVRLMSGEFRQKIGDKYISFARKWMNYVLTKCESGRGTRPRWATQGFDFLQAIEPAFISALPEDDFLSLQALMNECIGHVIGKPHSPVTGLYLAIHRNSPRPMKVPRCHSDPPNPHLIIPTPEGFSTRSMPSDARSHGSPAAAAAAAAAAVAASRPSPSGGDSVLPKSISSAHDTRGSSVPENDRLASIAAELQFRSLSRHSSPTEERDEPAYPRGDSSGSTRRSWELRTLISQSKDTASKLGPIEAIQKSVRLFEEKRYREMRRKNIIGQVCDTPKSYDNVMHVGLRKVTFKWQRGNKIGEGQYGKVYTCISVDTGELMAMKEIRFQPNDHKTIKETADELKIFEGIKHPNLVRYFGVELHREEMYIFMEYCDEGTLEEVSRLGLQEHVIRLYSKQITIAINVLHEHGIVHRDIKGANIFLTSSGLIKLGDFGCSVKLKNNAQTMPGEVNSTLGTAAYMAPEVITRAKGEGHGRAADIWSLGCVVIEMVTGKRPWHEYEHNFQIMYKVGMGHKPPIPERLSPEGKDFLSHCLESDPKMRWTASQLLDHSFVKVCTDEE
Sequence of Serine/threonine-protein kinase WNK2 (Homo sapiens) (Q9Y3S1 whole entry): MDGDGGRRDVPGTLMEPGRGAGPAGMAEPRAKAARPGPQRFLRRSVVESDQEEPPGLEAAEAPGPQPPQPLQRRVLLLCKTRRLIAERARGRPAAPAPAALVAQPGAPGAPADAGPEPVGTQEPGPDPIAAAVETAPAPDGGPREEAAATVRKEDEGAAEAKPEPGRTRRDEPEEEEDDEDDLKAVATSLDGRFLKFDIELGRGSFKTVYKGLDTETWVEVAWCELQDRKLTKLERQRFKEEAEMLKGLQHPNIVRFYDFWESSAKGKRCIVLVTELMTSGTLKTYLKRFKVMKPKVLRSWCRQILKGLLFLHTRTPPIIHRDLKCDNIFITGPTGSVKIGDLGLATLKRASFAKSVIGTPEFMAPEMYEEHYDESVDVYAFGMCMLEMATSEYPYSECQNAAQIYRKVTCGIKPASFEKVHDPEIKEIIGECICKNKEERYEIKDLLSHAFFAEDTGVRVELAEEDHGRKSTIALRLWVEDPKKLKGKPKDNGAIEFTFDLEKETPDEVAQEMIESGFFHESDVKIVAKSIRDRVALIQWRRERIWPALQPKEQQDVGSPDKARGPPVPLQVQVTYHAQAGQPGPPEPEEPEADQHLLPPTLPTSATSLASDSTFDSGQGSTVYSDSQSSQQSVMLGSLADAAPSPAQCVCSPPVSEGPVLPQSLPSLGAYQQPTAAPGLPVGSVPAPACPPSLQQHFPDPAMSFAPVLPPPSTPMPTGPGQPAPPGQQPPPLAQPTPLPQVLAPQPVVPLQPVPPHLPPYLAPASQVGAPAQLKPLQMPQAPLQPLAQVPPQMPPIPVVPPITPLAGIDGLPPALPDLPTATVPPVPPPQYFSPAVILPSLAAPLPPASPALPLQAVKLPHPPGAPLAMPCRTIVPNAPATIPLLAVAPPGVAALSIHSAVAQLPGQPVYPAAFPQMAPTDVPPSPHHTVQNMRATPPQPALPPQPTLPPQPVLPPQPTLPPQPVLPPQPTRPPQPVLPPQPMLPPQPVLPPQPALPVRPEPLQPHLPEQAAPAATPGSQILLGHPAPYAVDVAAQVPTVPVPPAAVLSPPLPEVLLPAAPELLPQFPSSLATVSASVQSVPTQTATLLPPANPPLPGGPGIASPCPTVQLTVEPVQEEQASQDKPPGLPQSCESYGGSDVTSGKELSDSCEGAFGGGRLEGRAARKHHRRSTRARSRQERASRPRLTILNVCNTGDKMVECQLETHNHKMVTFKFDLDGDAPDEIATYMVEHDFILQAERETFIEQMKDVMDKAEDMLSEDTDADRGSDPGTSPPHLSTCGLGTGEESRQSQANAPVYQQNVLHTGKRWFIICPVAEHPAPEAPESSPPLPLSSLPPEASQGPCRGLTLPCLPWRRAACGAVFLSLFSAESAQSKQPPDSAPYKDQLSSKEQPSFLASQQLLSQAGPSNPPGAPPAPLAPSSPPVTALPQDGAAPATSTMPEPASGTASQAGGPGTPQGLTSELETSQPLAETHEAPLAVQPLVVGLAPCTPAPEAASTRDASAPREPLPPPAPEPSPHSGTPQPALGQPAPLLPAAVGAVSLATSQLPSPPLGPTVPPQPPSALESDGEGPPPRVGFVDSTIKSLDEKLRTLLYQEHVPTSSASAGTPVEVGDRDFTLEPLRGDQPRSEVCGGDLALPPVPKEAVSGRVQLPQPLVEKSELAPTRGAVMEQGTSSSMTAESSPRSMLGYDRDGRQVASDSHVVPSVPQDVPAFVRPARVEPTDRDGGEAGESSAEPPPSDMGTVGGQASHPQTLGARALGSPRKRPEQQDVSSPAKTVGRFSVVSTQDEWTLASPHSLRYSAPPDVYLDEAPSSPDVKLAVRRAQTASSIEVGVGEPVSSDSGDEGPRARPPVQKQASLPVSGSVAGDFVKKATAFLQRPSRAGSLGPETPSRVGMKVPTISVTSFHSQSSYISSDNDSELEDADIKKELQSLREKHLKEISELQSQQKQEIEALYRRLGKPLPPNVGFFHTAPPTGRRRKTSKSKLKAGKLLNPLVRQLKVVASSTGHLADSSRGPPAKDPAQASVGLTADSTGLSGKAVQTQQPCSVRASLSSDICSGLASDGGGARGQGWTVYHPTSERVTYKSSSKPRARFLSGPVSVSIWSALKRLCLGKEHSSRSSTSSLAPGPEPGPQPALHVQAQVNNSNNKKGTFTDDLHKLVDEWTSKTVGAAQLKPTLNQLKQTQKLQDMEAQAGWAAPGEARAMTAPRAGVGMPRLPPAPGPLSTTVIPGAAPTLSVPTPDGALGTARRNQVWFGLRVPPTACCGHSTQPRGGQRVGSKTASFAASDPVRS
Sequence of Tyrosine-protein kinase CSK (Homo sapiens) (P41240 2-450 limits assumed): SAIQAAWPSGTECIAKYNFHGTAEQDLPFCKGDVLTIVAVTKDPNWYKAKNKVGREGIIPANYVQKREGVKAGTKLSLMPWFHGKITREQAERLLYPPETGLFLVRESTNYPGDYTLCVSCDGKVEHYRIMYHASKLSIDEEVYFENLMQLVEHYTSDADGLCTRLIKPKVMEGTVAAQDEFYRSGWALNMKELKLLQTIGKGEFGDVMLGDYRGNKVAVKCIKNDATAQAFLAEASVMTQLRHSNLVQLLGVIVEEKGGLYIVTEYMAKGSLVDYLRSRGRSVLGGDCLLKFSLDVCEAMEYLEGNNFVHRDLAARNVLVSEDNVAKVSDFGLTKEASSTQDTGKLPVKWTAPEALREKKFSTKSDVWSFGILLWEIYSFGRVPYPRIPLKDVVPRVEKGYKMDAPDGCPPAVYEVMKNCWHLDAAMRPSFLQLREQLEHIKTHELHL

As for `O=C(NC1(c2ccc(F)cc2)CC1)c1ccc2nc(N[C@H]3CC[C@H](O)CC3)c3nccn3c2c1`, the inhibition in assay [1], in assay [2], in assay [3], in assay [4], in [5] and in [6] was below 35% throughout. Moreover, the inhibition in [7], in assay [8], in assay [9], in [10] and in [11] was below 35% each time.

Take `C[C@H](NC(=O)c1ccc2nc(N[C@H]3CC[C@H](O)CC3)c3nccn3c2c1)c1ccccc1`: the inhibition in [1], in assay [2], in assay [3], in assay [4], in assay [5] and in assay [6] was below 35% in each case. The inhibition in [7], in assay [8], in assay [9], in assay [10] and in [11] was below 35% throughout.

Consider `O=C(O)c1ccc2nc(N[C@H]3CC[C@H](O)CC3)c3nccn3c2c1`, for which the inhibition is below 35% in assay [1]; below 35% in [2]; below 35% in assay [3]; 90.1% in assay [4]; below 35% in assay [5]; below 35% in [6]. Also, the inhibition is below 35% in [7]; below 35% in assay [8]; below 35% in [9]; below 35% in assay [10]; 57.1% in assay [11].

Regarding `O=C(NC1(c2ccccc2)CC1)c1ccc2nc(N[C@H]3CC[C@H](O)CC3)c3nccn3c2c1`, the inhibition in [1], in assay [2], in assay [3], in assay [4], in assay [5] and in assay [6] was below 35% in each case. In addition, the inhibition in [7], in [8], in assay [9], in assay [10] and in assay [11] was below 35% in each case.

As for `O=C(N[C@H](CO)c1ccccc1)c1ccc2nc(N[C@H]3CC[C@H](O)CC3)c3nccn3c2c1`, the inhibition was below 35% in assay [1]; below 35% in [2]; below 35% in [3]; 44.5% in assay [4]; below 35% in assay [5]; below 35% in [6]. Also, the inhibition in assay [7], in assay [8], in [9], in assay [10] and in assay [11] was below 35% throughout.

Regarding `C[C@@H](NC(=O)c1ccc2nc(N[C@H]3CC[C@H](O)CC3)c3nccn3c2c1)c1ccccc1`, the inhibition is below 35% in assay [1]; below 35% in assay [2]; below 35% in [3]; 51% in [4]; below 35% in assay [5]; below 35% in assay [6]. Moreover, the inhibition in assay [7], in [8], in [9], in assay [10] and in assay [11] was below 35% in each case.

For the compound `CC[C@@H](NC(=O)c1ccc2nc(N[C@H]3CC[C@H](O)CC3)c3nccn3c2c1)c1ccccc1`, the inhibition in [1], in [2], in [3], in [4], in assay [5] and in [6] was below 35% each time. For the same compound, the inhibition in [7], in assay [8], in assay [9], in assay [10] and in assay [11] was below 35% throughout.

As to `CCC[C@@H](NC(=O)c1ccc2nc(N[C@H]3CC[C@H](O)CC3)c3nccn3c2c1)c1ccccc1`, the inhibition in [1], in assay [2], in assay [3], in assay [4], in [5] and in assay [6] was below 35% each time. Also, the inhibition in [7], in [8], in [9], in [10] and in assay [11] was below 35% each time.

`NC(=O)c1ccc2nc(N[C@H]3CC[C@H](O)CC3)c3nccn3c2c1`: the inhibition in [1] was below 35%; in assay [2], below 35%; in assay [3], below 35%; in assay [4] it was 78.1%; in [5], below 35%; in assay [6], below 35%. Also, the inhibition in assay [7] is below 35%; in [8] it was below 35%; in assay [9], below 35%; in assay [10] it was below 35%; in assay [11], 69%.

On to `CC(C)(NC(=O)c1ccc2nc(N[C@H]3CC[C@H](O)CC3)c3nccn3c2c1)c1ccccc1`, for which the inhibition in assay [1], in assay [2], in assay [3], in assay [4], in assay [5] and in [6] was below 35% each time. Moreover, the inhibition in assay [7], in [8], in [9], in assay [10] and in assay [11] was below 35% throughout.
